Measured values taken from ChEMBL document CHEMBL5537111, “Structure and function of SARS-CoV and SARS-CoV-2 main proteases and their inhibition: A comprehensive review” (Eur J Med Chem, 2023).

Columns and labels:
SARS-CoV-2 [1] = type: functional, organism-based; conditions: Severe acute respiratory syndrome coronavirus 2, A549-ACE2
[2] = target: T1, Replicase polyprotein 1ab (Severe acute respiratory syndrome coronavirus 2, UniProt P0DTD1)
Replicase polyprotein 1a [3] = target: T2, Replicase polyprotein 1a (Severe acute respiratory syndrome-related coronavirus, UniProt P0C6U8)
[4] = target: T1, Replicase polyprotein 1ab; remark: listed apart in the source
SARS-CoV-2 [5] = assay: microbe, parasite or virus in culture; conditions: Severe acute respiratory syndrome coronavirus 2, Vero C1008, 72 h
SARS-CoV-2 [6] = type: functional, organism-based; conditions: Severe acute respiratory syndrome coronavirus 2, Calu-3, 48 h
SARS-CoV-2 [7] = type: functional, organism-based; conditions: Severe acute respiratory syndrome coronavirus 2, Vero
SARS-CoV-2 [8] = assay: microbe, parasite or virus in culture; conditions: Severe acute respiratory syndrome coronavirus 2, Vero C1008
SARS-CoV-2 [9] = type: functional, organism-based; conditions: Severe acute respiratory syndrome coronavirus 2, Vero C1008, 120 h
[10] = target: T1, Replicase polyprotein 1ab; remark: listed apart in the source
SARS-CoV-2 [11] = assay: microbe, parasite or virus in culture; conditions: Severe acute respiratory syndrome coronavirus 2, Vero C1008; remark: listed apart in the source
SARS-CoV-2 [12] = assay: Antiviral activity against SARS-CoV-2 Omicron BA.1 infected in human A549-hACE2-TMPRSS2 cells assessed as reduction in viral replication pre-incubated with compound followed by viral infection measured after 72 hrs by ELISA assay; type: functional, organism-based; conditions: Severe acute respiratory syndrome coronavirus 2, Omicron BA.1, A549-hACE2-TMPRSS2
Procathepsin L = Procathepsin L (Homo sapiens, UniProt P07711); assay: Inhibition of cathepsin L (unknown origin)
SARS-CoV = assay: microbe, parasite or virus in culture; conditions: Severe acute respiratory syndrome-related coronavirus, Vero C1008, 72 h
SARS-CoV-2 [13] = type: functional, organism-based; conditions: Severe acute respiratory syndrome coronavirus 2, Huh-7, 72 h
SARS-CoV-2 [14] = type: functional, organism-based; conditions: Severe acute respiratory syndrome coronavirus 2, Huh-7
Replicase polyprotein 1a [15] = target: T2, Replicase polyprotein 1a; remark: listed apart in the source
SARS-CoV-2 [16] = type: functional, organism-based; conditions: Severe acute respiratory syndrome coronavirus 2
SARS-CoV-2 [17] = assay: microbe, parasite or virus in culture; conditions: Severe acute respiratory syndrome coronavirus 2, B.1.1.7, Caco-2

Procathepsin L, sequence (P07711 whole entry): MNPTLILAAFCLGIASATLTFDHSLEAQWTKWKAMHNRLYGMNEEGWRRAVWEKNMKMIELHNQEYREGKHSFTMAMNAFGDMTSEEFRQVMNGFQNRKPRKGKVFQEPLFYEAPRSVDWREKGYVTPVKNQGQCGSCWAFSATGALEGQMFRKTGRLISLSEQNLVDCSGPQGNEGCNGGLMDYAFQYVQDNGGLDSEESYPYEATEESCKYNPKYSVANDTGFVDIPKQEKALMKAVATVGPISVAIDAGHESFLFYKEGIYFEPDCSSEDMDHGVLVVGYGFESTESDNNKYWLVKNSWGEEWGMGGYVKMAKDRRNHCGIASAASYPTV

`C[C@@H](OC(C)(C)C)[C@H](NC(=O)OCc1ccccc1)C(=O)N[C@@H](CC1CCCCC1)C(=O)NN(CCC(N)=O)C(=O)C(Cl)Cl` gave an EC50 (SARS-CoV-2 [1]) of 10 nM and an IC50 [2] of 68000 nM.

`CCCCC1CCC(COC(=O)N[C@@H](CC(C)C)C(=O)N[C@H](C=O)C[C@@H]2CCNC2=O)CC1` (some centres undefined) showed an IC50 (Replicase polyprotein 1a [3]) of 900 nM, an IC50 [4] of 170 nM and an EC50 (SARS-CoV-2 [5]) of 150 nM.

`COC(=O)[C@]12CCC(C)(C)C[C@H]1[C@H]1C(=O)C=C3[C@@]4(C)C=C(C#N)C(=O)C(C)(C)[C@@H]4CC[C@@]3(C)[C@]1(C)CC2` [BARDOXOLONE METHYL] showed an EC50 (SARS-CoV-2 [6]) of 200 nM, an IC50 [4] of 5810 nM and an EC50 (SARS-CoV-2 [7]) of 290 nM.

For `CC(C)C[C@H](NC(=O)OCc1ccccc1)C(=O)N[C@H](C=O)C[C@@H]1CCNC1=O`, the IC50 (Replicase polyprotein 1a [3]) was 70 nM.

In the case of `O=C[C@H](CC1CCNC1=O)NC(=O)[C@H](CC1CCCCC1)NC(=O)c1cc2ccccc2[nH]1` (some centres undefined), the IC50 (Replicase polyprotein 1a [3]) is reported as 53 nM.

With `O=c1c(O)c(-c2cc(O)c(O)c(O)c2)oc2cc(O)cc(O)c12` [MYRICETIN] the EC50 (SARS-CoV-2 [8]) was 8000 nM.

`CC(C)(C)NC(=O)[C@@H](c1cccnc1)N(C(=O)c1ccco1)c1ccc(C(C)(C)C)cc1` gave an EC50 (SARS-CoV-2 [9]) of over 20000 nM.

`O=C(Oc1cncc(Cl)c1)c1sccc1Cl` gave an EC50 (SARS-CoV-2 [7]) of 23100 nM.

For `C=CC(=O)N[C@H](CC(=C)C)C(=O)N1C[C@@H](C(=O)N[C@H](Cc2ccccc2)C(=O)NC)[C@H](c2cccc(C(F)(F)F)c2)C1`, the IC50 (Replicase polyprotein 1a [3]) was 3500 nM, the EC50 (SARS-CoV-2 [7]) was 33000 nM and the IC50 [10] was 2000 nM.

For `O=C(On1nnc2ccccc21)c1ccc2[nH]ccc2c1`, the IC50 [4] was 7.5 nM.

For `O=C(NCc1ccc(O)c(F)c1)N1CCC(CN2CCc3ccccc32)CC1`, the EC50 (SARS-CoV-2 [11]) was 4980 nM and the IC50 [10] was 730 nM.

Compound `CCOC(=O)/C=C/[C@H](C[C@@H]1CCNC1=O)NC(=O)[C@H](Cc1ccccc1)NC(=O)[C@H](N)Cc1ccccc1` has an IC50 [4] of 900 nM, an EC50 (SARS-CoV-2 [12]) of 8.2 nM and an IC50 (Procathepsin L) of 60 nM.

In the case of `CCOc1cc2ncc(C#N)c(Nc3ccc(F)c(Cl)c3)c2cc1NC(=O)/C=C/CN(C)C` [PELITINIB], the EC50 (SARS-CoV) is reported as 1250 nM.

With `CC(C)(C)NC(=O)N[C@H](C(=O)N1C[C@H]2[C@@H]([C@H]1C(=O)N[C@@H](C[C@@H]1CCNC1=O)C(=O)C(N)=O)C2(C)C)C(C)(C)C` the EC50 (SARS-CoV-2 [13]) was 100 nM and the EC50 (SARS-CoV-2 [14]) was 100 nM.

Work on `C[C@@H](OC(C)(C)C)[C@H](NC(=O)OCc1ccccc1)C(=O)N[C@@H](CC1CCCCC1)C(=O)N[C@H](C=O)C[C@@H]1CCNC1=O` yielded a Ki (Replicase polyprotein 1a [15]) of 53 nM, an EC50 (SARS-CoV-2 [5]) of 30 nM and an EC50 (SARS-CoV) of 600 nM.

Work on `C=C(C)C(Cc1c(OC)ccc(C(=O)/C=C/c2ccc(O)cc2)c1O)OO` (centres undefined) yielded an IC50 [4] of 16000 nM, an EC50 (SARS-CoV-2 [8]) of 7100 nM and a Ki (Replicase polyprotein 1a [15]) of 16100 nM.

`CC1(C)[C@@H]2[C@@H](C(=O)N[C@H](C=O)C[C@@H]3CCNC3=O)N(C(=O)COc3ccc(OC(F)(F)F)cc3)C[C@@H]21` was tested, and the EC50 (SARS-CoV-2 [16]) was 1.2 nM and the EC50 (SARS-CoV-2 [5]) was 860 nM.

`CC(C)(C)NC(=O)N[C@H](C(=O)N1C[C@H]2[C@@H]([C@H]1C(=O)NC(CC1CCC1)C(=O)C(N)=O)C2(C)C)C(C)(C)C` (some centres undefined) [BOCEPREVIR] showed an IC50 (Replicase polyprotein 1a [3]) of 6630 nM, an EC50 (SARS-CoV-2 [5]) of 15600 nM and an EC50 (SARS-CoV-2 [17]) of 2970 nM. For the same compound, the EC50 (SARS-CoV-2 [11]) was 15600 nM.

With `CN(C)C(=O)COc1ccc(-c2cccc3[nH]ncc23)cc1C=O` the EC50 (SARS-CoV-2 [11]) was 2500 nM.

For `CCOC(=O)/C=C/[C@H](C[C@@H]1CCNC1=O)NC(=O)[C@H](CC(C)C)NC(=O)[C@@H](NC(=O)OCc1ccccc1)[C@@H](C)OC(C)(C)C`, the IC50 [4] was 151000 nM.
